Assay: gradient 5% acetonitrile 3 min, to 50% in 2 min, to 85% in 15 min, held 3 min, 100 µL/min
Details: column: Zorbax Extend-C18 2.1 x 50 mm; eluents: water / acetonitrile, 0.1% formic acid
In short: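 Data were gathered over 3 months by HPLC coupled to a quadrupole time-of-flight mass spectrometer, operated in positive and negative ionization mode. Mixtures of ~100 pure standards ran on a Zorbax Extend-C18 column (2.1 × 50 mm, 1.8 μm) at 100 μL/min, with water and acetonitrile each containing 0.1% formic acid and dead and dwell volumes of 40 μL and 900 μL. Retention time was read from adduct peaks picked by computer and checked manually.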

| RP-LC retention time [s] | SMILES |
| --- | --- |
| 595 | O=C(CN1CCN(Cc2nc(-c3ccc(F)cc3)cs2)CC1)NCc1ccco1 |
| 601 | COc1ccc(OC)c(Nc2c(C(=O)N3CCCC3)cnc3nc(C)ccc23)c1 |
| 873 | COC(=O)c1ccccc1S(=O)(=O)N1CCc2c(c(-c3nnc(-c4ccccc4F)o3)nn2C)C1 |
| 582 | CC(C)n1cnc2cc(CNC(=O)c3ccnn3C)ccc21 |
| 1270 | CCCc1ccc(S(=O)(=O)N2CCCC2c2nc(-c3ccc(F)cc3)no2)cc1 (stereo unspecified) |
| 1060 | C=CCn1nc(-c2nc(-c3cccc(Cl)c3)no2)ccc1=O |
| 801 | CCn1ccc(NC(=O)Nc2ccccc2C)n1 |
| 1040 | CCOc1ccc(-c2ccc(=O)n(CCc3nc(-c4cccc(F)c4)no3)n2)cc1 |
| 927 | CCN1C(=O)c2cccnc2Sc2cc(NC(=O)COc3ccc(Cl)cc3)ccc21 |
| 814 | Clc1ccc(-c2csc(N3CCC(c4ccccc4)C3)n2)cc1 (stereo unspecified) |
| 848 | Cn1cc(NC(=O)Nc2ccc(F)c(F)c2)c2ccccc21 |
| 1200 | CCN(CC)S(=O)(=O)c1cc(-c2nnc(-c3cccc(C)c3)o2)ccc1Cl |
| 890 | Cc1noc(-c2cc(=O)n(CC(=O)Nc3cccc(C)c3C)c3ccccc23)n1 |
| 962 | COC(=O)c1ccccc1Nc1c(-c2ccccc2)nc2cnccn12 |
| 705 | Cc1cc(C)cc(Nc2c(-c3ccc(O)cc3)nc3ncccn23)c1 |
| 870 | Cc1ccc(NC(=O)C2CCCN(c3ccc4cc(S(=O)(=O)N5CCCC5)ccc4n3)C2)cc1C (stereo unspecified) |
| 830 | Cc1ccc(C)c(NC(=O)N2C[C@H](c3nc(-c4ccncc4)no3)[C@@H](C)C2)c1 |
| 700 | CCOc1cc(CNc2ccc3[nH]c(=O)[nH]c3c2)cc(Cl)c1OCC |
| 570 | COCCn1c(C2CCN(C(=O)Cc3ccc(Cl)cc3)C2)nc2ccncc21 (stereo unspecified) |

| RP-LC retention time [s] | SMILES |
| --- | --- |
| 845 | Cc1cc(Cl)ccc1S(=O)(=O)N1CCCC1c1nncn1-c1ccccc1 (stereo unspecified) |
| 864 | COC(=O)c1c(NC(C)c2ccccc2)c2cccc(Cl)c2[nH]c1=O (stereo unspecified) |
| 1120 | CCN1C(=O)C2(CCN(S(=O)(=O)c3ccc(C)c(F)c3)CC2)c2ccccc21 |
| 1060 | CCN1C(=O)c2cc(S(=O)(=O)Nc3cccc(Cl)c3)ccc2Oc2cccnc21 |
| 995 | COc1ccc2c(C)cc(SCC(=O)Nc3c(C)cccc3C)nc2c1 |
| 666 | COc1ccc(NC(=O)C2CCCN(c3nnc4ccc(Cl)cn34)C2)cc1 (stereo unspecified) |
| 725 | O=C(NCCc1ccccc1)N1CCC(n2c(-c3ccoc3)nc3cccnc32)C1 (stereo unspecified) |
| 795 | COc1cc(Cl)ccc1C(=O)NC1CCN(c2cc(-c3cccs3)[nH]n2)C1 (stereo unspecified) |
| 933 | Cc1cc(=O)n2nc(-c3ccc(Cl)cc3)nc2n1CC(=O)N1CCN(c2ccc(F)cc2)CC1 |
| 1060 | COC(=O)c1cc(-c2c[nH]cc2C(=O)OCc2ccccc2)cn1S(=O)(=O)c1ccc(C)cc1 |
| 855 | CCOC(=O)c1sc(NC(=O)c2ccncc2)nc1-c1ccccc1 |
| 648 | Cc1cc(Cl)ccc1NC(=O)N1CCC(c2nc3ccncc3n2C(C)C)C1 (stereo unspecified) |
| 1220 | Cc1ccc(C)c(-c2nc(-c3ccc4c(c3)oc(=O)n4C)no2)c1 |
| 844 | Cc1ccccc1-n1ccn(Cc2nc(-c3ccc(F)cc3)no2)c(=O)c1=O |
| 852 | CCOc1cccc(CN2CCc3nc(N4CCN(c5ccccc5F)CC4)ncc3C2)c1 |
| 651 | COC(=O)c1cnc(N2CCN(c3cc(Cl)ccc3C)CC2)c2ccccc12 |
| 805 | Cc1ccc(Nc2c(-c3ccc(N(C)C)cc3)nc3ncccn23)cc1Cl |
| 820 | Cc1nc(OCC(=O)Nc2ccc(Br)cc2F)c2ccccc2n1 |
| 808 | CN(C)C(=O)c1cn(-c2ccc(-c3nc(C(C)(C)C)no3)cn2)cn1 |

Second part, the compound before the results:

| SMILES | RP-LC retention time [s] |
| --- | --- |
| CCC(=O)N1c2ccccc2CC1c1nc(C(C)C)no1 (stereo unspecified) | 913 |
| C[C@H]1C2Cc3ccc(O)cc3[C@@]1(C)CCN2CC1CC1 | 669 |
| CCCn1cc(S(=O)(=O)NCc2ccccc2F)c2cccnc21 | 861 |
| CN(C)C(=O)c1csc(S(=O)(=O)N2CCC(C(=O)NCc3ccc(F)cc3)CC2)c1 | 725 |
| Cc1nc([C@@H]2CN(C(=O)CCc3c(C)noc3C)C[C@H]2C(N)=O)n[nH]1 | 569 |
| Cc1ccc(C(=O)N2CCC3(CCC3N3CCOCC3)CC2)s1 (stereo unspecified) | 597 |
| O=C(Nc1ccccc1NC(=O)c1ccccc1C(F)(F)F)c1ccsc1 | 830 |
| O=C(CN1Cc2ccccc2C1=O)N[C@@H](Cc1c[nH]c2ccccc12)C(=O)O | 661 |
| CCn1ccc(C(=O)N2CCCC2(CO)Cc2ccccc2)n1 (stereo unspecified) | 790 |
| COC(=O)CCSCC(=O)Nc1nnc(C)s1 | 602 |
| COc1cccc(-c2[nH]ncc2CN2CCC3(CCC3O)CC2)c1 (stereo unspecified) | 586 |
| Cc1ccc(NC(=O)N2C[C@@H](F)C[C@H]2C(=O)N2CCCCC2)c(C)c1 | 732 |
| O=C(Cn1nc2n(c1=O)CCCCC2)NCc1ccc2c(c1)OCO2 | 756 |
| O=C(OCCN1CCN(C2=NS(=O)(=O)c3ccccc32)CC1)c1ccccc1 | 656 |
| COCCn1nc2n(c1=O)CCN(Cc1cccc(OC)n1)CC2 | 515 |
| CCSc1nnc(-c2nn(C)c3c2CN(S(=O)(=O)c2ccc4c(c2)OCCO4)CC3)n1CC | 895 |
| CCSc1nnc(NC(=O)Cn2nc(-c3ccncc3)ccc2=O)s1 | 561 |
| CCCN(CC1CC1)C(=O)c1nn(CCOC)c2c1CNCC2 | 567 |
| Cc1cc2c(cc(C(=O)N3CCC(C(=O)NC4CCCC4)CC3)n2Cc2c(F)cccc2Cl)o1 | 998 |
| COc1ccc(/C=C/c2ccc3c(c2)OCCO3)cc1O | 868 |
| COc1ccc(C(=O)NCc2c(C)noc2C)cn1 | 633 |
| O=C(NC(Cc1ccccc1)c1nnc(N2CCCC2)o1)c1ccco1 (stereo unspecified) | 713 |
| CCOC(=O)c1[nH]c(C)c(CCC(=O)N2CCC(C(=O)NCCC(C)C)CC2)c1C | 798 |
| CCCCN(CCCNC(=O)C1CCN(S(=O)(=O)N2CCOCC2)CC1)Cc1ccccc1 | 640 |
| CC(Cc1ccco1)NC(=O)c1cccn(C)c1=O (stereo unspecified) | 649 |
| COc1ccc(N2C(=O)CCS2(=O)=O)cc1S(=O)(=O)N1CCN(c2ccccn2)CC1 | 603 |
| CCCC1OC(c2cc3c(cc2Cl)OCO3)OCC1CC (stereo unspecified) | 1070 |

| SMILES | RP-LC retention time [s] |
| --- | --- |
| CC(O)(CCc1ccccc1)CNC(=O)C(=O)NCCC1=CCCCC1 (stereo unspecified) | 936 |
| Cc1ccc(-n2cc3c(c(C(=O)N4CCCC4)c2=O)CC(C)(C)CC3=O)cc1 | 758 |
| CCOC(=O)c1cccc(NC(=O)c2c(OCC)cc(=O)n3c2CCCC3)c1 | 772 |
| CC(C)NC(=O)c1ccc(OCC2CCCN(C(=O)Cc3ccc(F)cc3)C2)cc1 (stereo unspecified) | 979 |
| CC1(C)C(=O)NCCN1C(=O)c1cccc(Cl)c1 | 637 |
| Cn1cc(C2=CCN(CC(=O)N3CCN(c4ccc(F)cc4)CC3)CC2)cn1 | 612 |
| CCN1C(=O)c2cccnc2Sc2cc(C(=O)N3CCCC3)ccc21 | 684 |
| CC1CCCN(CCCNC(=O)CCCn2c(=O)c3cccn3c3ccc(F)cc32)C1 (stereo unspecified) | 650 |
| CCCN1C(=O)C2CCC(=O)N2c2ccc(C(=O)NCCCN3CCOCC3)cc21 (stereo unspecified) | 570 |
| O=C(NCc1ccccc1)C1CCCN(S(=O)(=O)c2c[nH]c(C(=O)N3CCCCCC3)c2)C1 (stereo unspecified) | 826 |
| CCc1nc(-c2csc(S(=O)(=O)N3CCC(C(=O)N4CCc5ccccc5C4)CC3)c2)no1 | 1020 |
| O=C(CN1C(=O)CCSc2ccccc21)Nc1ccc2c(c1)OCO2 | 627 |
| O=C(CSCc1ccccc1)Nc1cc(=O)[nH]c(=O)[nH]1 | 629 |
| O=C(O)C1CCN(c2nc3ccc(-c4ccccc4F)nc3s2)CC1 | 869 |
| O=C(NC1CCCC1)N1CC(Oc2cccc(-c3nc(-c4ccccc4)no3)c2)C1 | 1130 |
| CCOc1nc2ccccc2nc1N1CCCC(C(=O)N2CCOCC2)C1 (stereo unspecified) | 983 |
| CCCNC(=O)C1CCN(c2nc3ccc(-c4cccnc4)nc3s2)CC1 | 604 |
| Cc1ccc2c(c1)N(Cc1ccccc1F)N=C(C(=O)N1CCCCC1)S2(=O)=O | 1000 |
| CCCCn1cc(S(=O)(=O)N2CCN(c3ccccc3F)CC2)c2cccnc21 | 1190 |
| CNC(=O)c1cc2c(=O)n(CC(C)C)c3ccccc3n2n1 | 793 |
| COCCN1C(=O)c2cccn2CC1CNC(=O)Cc1c(C)noc1C (stereo unspecified) | 610 |
| CC1(C(=O)NCc2ccc(F)cc2)CCN(C(=O)Nc2ccccc2Br)CC1 | 871 |
| COc1cc(NC(=O)C2CCCN(c3nc(C)nc4oc(C)c(C)c34)C2)cc(OC)c1 (stereo unspecified) | 915 |
| COCC(C)(O)CNS(=O)(=O)Cc1cccc(F)c1 (stereo unspecified) | 641 |
| CCCCSc1cc(=O)[nH]c(N)n1 | 700 |
| CCNC(=O)N1CCCC(c2cccc(C(=O)NCCC3=CCCCC3)c2)C1 (stereo unspecified) | 906 |
